System: seed fruits of Cucumis sativus L.
Experiment: Soaking and dipping of female flowers of seed fruits of Cucumis sativus L. in the pollination stage
Format: in vivo
Details: 50 μM solution with Tween 80 10000:1, greenhouse
Experimental: A processing method for increasing seed production efficiency of seed fruits of Cucumis sativus L., comprising the following steps: • (1) Preparing a plant growth regulator according to a formula proportion; • Preparing a 5-azacytidine solution with a concentration of 50 μM, adding an emulsifier Tween 80 at the same time, and mixing the 5-azacytidine solution and the emulsifier Tween 80 at a proportion of 10000:1 to obtain the plant growth regulator; • (2) Selecting seed fruits of Cucumis sativus L. growing naturally in a greenhouse and reaching a pollination stage, and dipping female flowers thereof with the plant growth regulator prepared in step (1) before pollination; • (3) Picking male flowers for pollination after the female flowers are completely dry; • (4) Dipping the pollinated female flowers again; • (5) Conducting field routine cultivation management.
In step (2), the preserved solution of the prepared plant growth regulator is poured into any container, and the female flowers of the seed fruits of Cucumis sativus L. reaching a pollination stage are completely immersed in the plant growth regulator in the container for at least 5 seconds.
In step (2), in the greenhouse, the temperature is stabilized at 20° C.-35° C., the humidity is 70%-90%, the pH value of the cultivation soil is 6.5, a selected species of Cucumis sativus L. is a species of North China Cucumis sativus L. used for seed production, a row spacing for seed fruit cultivation is fixed at 75 cm, a planting distance is 25 cm, and the number of plants planted in each row is 80.
Step (3) is specifically as follows: picking male flowers blooming on the same plant, removing all petals, poking stamens of the male flowers into the female flowers after the female flowers soaked and dipped by the plant growth regulator are completely dry, and repeating the process for multiple times to increase pollination success rate.
Step (4) is specifically as follows: repeating the soaking and dipping treatment described in step (2) for successfully pollinated female flowers of Cucumis sativus L. on the third day after pollination.
In a third aspect of the present invention, a processing method for increasing seed production efficiency of seed fruits of Cucumis sativus L. is provided, which mainly comprises the following steps: • (1) Preparing a reagent. Specifically: preparing a 5-azacytidine solution with a concentration of 50 μM, adding an emulsifier Tween 80 at the same time according to a proportion of 10000:1, and preserving the reagent in a refrigerator at 4° C. • (2) Selecting seed fruits of Cucumis sativus L. growing naturally in a greenhouse and reaching a pollination stage, and dipping female flowers thereof with the reagent prepared in step (1) before pollination. […]

[1] = female flowers dipped before pollination and on the third day after

Nc1ncn([C@@H]2O[C@H](CO)[C@@H](O)[C@H]2O)c(=O)n1 [5-azacytidine] was tested, and the “fruit length of the seed fruits” value [1] was “significantly reduced”, the “number of seeds of the seed fruits” value [1] was “without affecting” and the “seed production efficiency of the seed fruits” value [1] was “increased”. For the same compound, the “weight of Cucumis sativus L. (fruit weight)” value (female flowers treated in the pollination stage) was “significantly reduce”.

Reference: patent US12285013B2, “Processing method for increasing seed production rate of seed fruits of Cucumis sativus L” (Yangzhou University, priority 2023, dated 2025)
